According to PMC12649549, “Sequence Permutation Generated Lysine and Tryptophan-Rich Antimicrobial Peptides with Enhanced Therapeutic Index” (Antibiotics, 2025):
Where two headings read alike, the source gives them in different places.

Assays:
[1] = system: Both Gram-positive and -negative bacteria; experiment: Geometric mean MIC, therapeutic index and fold changes of MIC, whole panel of strains; type: cell-based; conditions: for GM G−/+ (geometric mean of the MIC values): Both Gram-positive and -negative bacteria, MH broth, MIC >50 µg/mL counted as 100 µg/mL; for Therapeutic Index (TI) G−/+: HC10/GM, both Gram-positive and -negative bacteria
Protocol: In this study, we aimed to investigate the potential of W5K series peptides for therapeutic use. To evaluate their efficacy for antibacterial therapy, we used the Therapeutic Index (TI) as a measure of their cell selectivity. The TI was calculated as the ratio of the concentration causing 10% hemolysis of human red blood cells (HC10) to the geometric mean minimum inhibitory concentration (GM) of the peptides against both Gram-negative and Gram-positive bacteria. This parameter was used to quantitatively assess the balance between antibacterial potency and cytotoxicity among the W5K derivatives.
(§1) The antibacterial activities of the peptides in Müller-Hinton (MH) broth and modified LYM broth were determined using the standard broth microdilution method as per Clinical and Laboratory Standards Institute (CLSI) guidelines. The LYM broth was prepared with specific components and adjusted to different conditions, including varying concentrations of NaCl and MgCl2, and different pH levels. To prepare the LYM broth, 5.4 mM KCl, 5.6 mM Na2HPO4, 0.5 mM MgSO4, and 1.0 mM sodium citrate were added. Additionally, 0.4 mg of ZnCl2, 2.0 mg of FeCl3·6H2O, 0.1 mg of CuSO4·5H2O, 0.1 mg of MnSO4·H2O, 0.1 mg of Na2B4O7∙10H2O, 700 mg of amino acid mixtures without tryptophan (Takara Bio Inc., San Jose, CA, USA), and 20 mg of L-tryptophan were added per liter of medium. The pH was adjusted to 7.4, and a vitamin mixture (100X, Sigma) and glucose concentration of 2% were added. For different conditions of LYM broth, NaCl concentrations of 300, 200, 150, and 50 mM, MgCl2 concentrations of 2.5, 1.5, and 0.5 mM, and pH levels of 6.5, 5.5, and 4.5 were adjusted. Bacterial strains were incubated in MH broth overnight, regrown, and diluted to a final concentration of 5 × 10^5 CFU/mL. Peptides were added to each well at final concentrations of 50, 25, 12.5, 6.25, 3.13, 1.56, and 0.78 µg/mL, and 99 µL of diluted microbes was loaded into each well of a polypropylene 96-well plate. […] The Morpheus HeatMap software (https://software.broadinstitute.org/morpheus/) was used to display MIC values on a color scale. All experiments were independently repeated three times.

[2] = system: S. aureus ATCC 33592
Protocol: The antibacterial and salt-resistant activity of the peptides was tested using Escherichia coli (ATCC 25922), Pseudomonas aeruginosa Migula (ATCC 27853), Acinetobacter sp. (BCRC number 14B0091, BCRC number 14B0097, and BCRC number 14B0100), and Staphylococcus aureus sp. strains (ATCC 25923, ATCC 33591, ATCC 33592, ATCC 33593, and ATCC 6538). All bacteria were obtained from the Food Industry Research and Development Institute (Hsinchu, Taiwan) and cultured in sterilized Müller-Hinton (MH) broth at 37 °C and 200 rpm for 8 h. The inoculum concentrations were determined by measuring the optical density at 600 nm (OD 600 = 1, approximately 10^8 CFU/mL) using an Ultrospec 2100 pro UV-Visible spectrophotometer (Biochrom Ltd., Cambridge, UK) after 8 h of culture.
as §1, with “For different conditions of LYM broth, NaCl concentrations of 300, 200, 150, and 50 mM, MgCl2 concentrations of 2.5, 1.5, and 0.5 mM, and pH levels of 6.5, 5.5, and 4.5 were adjusted.” left out

[3] = system: Pseudomonas aeruginosa Migula (ATCC 27853)
How it was run: (§2)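 Salt and pH tolerance was assessed by determining MICs in LYM medium containing 50–300 mM NaCl, 0.5–2.5 mM MgCl2, or at pH 4.5–6.5, alongside MH broth. The inoculum was 5 × 10^5 CFU/mL.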

[4] = system: S. aureus ATCC 33591
How it was run: as §2

[5] = system: S. aureus ATCC 33593
How it was run: as §2

[6] = LYM broth, 0 mM NaCl, 16 h, 37 °C
[7] = LYM broth, 50 mM NaCl, 16 h, 37 °C
[8] = LYM broth, 100 mM NaCl, 16 h, 37 °C
[9] = LYM broth, 200 mM (NaCl), 16 h, 37 °C
[10] = LYM broth, 300 mM (NaCl), 16 h, 37 °C
[11] = MH broth, 5 × 10^5 CFU/mL, 16 h, 37 °C, repeated three times

Ac-KWLAKKKKWRKWL-NH2 [Peptide W5K07]
GM G−/+ (geometric mean of the MIC values) [1]: 43.5 mg/L | Therapeutic Index (TI) G−/+ [1]: 2.5 | MIC [2, 6]: 25 mg/L | MIC ([2]; LYM broth, 0.5 mM MgCl2): 25 mg/L | MIC ([2]; LYM broth, 1.5 mM MgCl2): 25 mg/L | MIC ([2]; LYM broth, 2.5 mM MgCl2): 25 mg/L | MIC [2, 7]: 25 mg/L | MIC [2, 8]: 50 mg/L | MIC [2, 9]: >50 mg/L | MIC [2, 10]: >50 mg/L | MIC ([2]; LYM broth, pH 4.5): 25 mg/L | MIC ([2]; LYM broth, pH 5.5): 25 mg/L | MIC ([2]; LYM broth, pH 6.5): 12.5 mg/L | MIC [2, 11]: >50 mg/L | MIC [3, 6]: 6.25 mg/L | MIC ([3]; LYM broth, 0.5 mM MgCl2): 12.5 mg/L | MIC ([3]; LYM broth, 1.5 mM MgCl2): 12.5 mg/L | MIC ([3]; LYM broth, 2.5 mM MgCl2): 25 mg/L | MIC [3, 7]: 12.5 mg/L | MIC [3, 8]: 25 mg/L | MIC [3, 9]: >50 mg/L | MIC [3, 10]: >50 mg/L | MIC ([3]; LYM broth, pH 4.5): 12.5 mg/L | MIC ([3]; LYM broth, pH 5.5): 6.25 mg/L | MIC ([3]; LYM broth, pH 6.5): 3.13 mg/L | MIC [3, 11]: 50 mg/L | MIC [4, 6]: 25 mg/L | MIC ([4]; LYM broth, 0.5 mM MgCl2): 25 mg/L | MIC ([4]; LYM broth, 1.5 mM MgCl2): 25 mg/L | MIC ([4]; LYM broth, 2.5 mM MgCl2): 25 mg/L | MIC [4, 7]: 25 mg/L | MIC [4, 8]: 50 mg/L | MIC [4, 9]: 50 mg/L | MIC [4, 10]: >50 mg/L | MIC ([4]; LYM broth, pH 4.5): 25 mg/L | MIC ([4]; LYM broth, pH 5.5): 25 mg/L | MIC ([4]; LYM broth, pH 6.5): 12.5 mg/L | MIC [4, 11]: >50 mg/L | MIC [5, 6]: 25 mg/L | MIC ([5]; LYM broth, 0.5 mM MgCl2): 25 mg/L | MIC ([5]; LYM broth, 1.5 mM MgCl2): 25 mg/L | MIC ([5]; LYM broth, 2.5 mM MgCl2): 25 mg/L | MIC [5, 7]: 25 mg/L | MIC [5, 8]: 50 mg/L | MIC [5, 9]: 50 mg/L | MIC [5, 10]: >50 mg/L | MIC ([5]; LYM broth, pH 4.5): 25 mg/L | MIC ([5]; LYM broth, pH 5.5): 12.5 mg/L | MIC ([5]; LYM broth, pH 6.5): 12.5 mg/L | MIC [5, 11]: >50 mg/L

Ac-KWLKWLAKKKKWR-NH2 [Peptide W5K04]
GM G−/+ (geometric mean of the MIC values) [1]: 35.4 mg/L | Therapeutic Index (TI) G−/+ [1]: 3.1 | MIC [2, 6]: 25 mg/L | MIC ([2]; LYM broth, 0.5 mM MgCl2): 25 mg/L | MIC ([2]; LYM broth, 1.5 mM MgCl2): 25 mg/L | MIC ([2]; LYM broth, 2.5 mM MgCl2): 25 mg/L | MIC [2, 7]: 25 mg/L | MIC [2, 8]: 50 mg/L | MIC [2, 9]: >50 mg/L | MIC [2, 10]: >50 mg/L | MIC ([2]; LYM broth, pH 4.5): 25 mg/L | MIC ([2]; LYM broth, pH 5.5): 25 mg/L | MIC ([2]; LYM broth, pH 6.5): 12.5 mg/L | MIC [2, 11]: >50 mg/L | MIC [3, 6]: 12.5 mg/L | MIC ([3]; LYM broth, 0.5 mM MgCl2): 6.25 mg/L | MIC ([3]; LYM broth, 1.5 mM MgCl2): 12.5 mg/L | MIC ([3]; LYM broth, 2.5 mM MgCl2): 12.5 mg/L | MIC [3, 7]: 12.5 mg/L | MIC [3, 8]: 25 mg/L | MIC [3, 9]: >50 mg/L | MIC [3, 10]: >50 mg/L | MIC ([3]; LYM broth, pH 4.5): 6.25 mg/L | MIC ([3]; LYM broth, pH 5.5): 6.25 mg/L | MIC ([3]; LYM broth, pH 6.5): 3.13 mg/L | MIC [3, 11]: 50 mg/L | MIC [4, 6]: 25 mg/L | MIC ([4]; LYM broth, 0.5 mM MgCl2): 25 mg/L | MIC ([4]; LYM broth, 1.5 mM MgCl2): 25 mg/L | MIC ([4]; LYM broth, 2.5 mM MgCl2): 50 mg/L | MIC [4, 7]: 50 mg/L | MIC [4, 8]: 50 mg/L | MIC [4, 9]: >50 mg/L | MIC [4, 10]: >50 mg/L | MIC ([4]; LYM broth, pH 4.5): 25 mg/L | MIC ([4]; LYM broth, pH 5.5): 12.5 mg/L | MIC ([4]; LYM broth, pH 6.5): 12.5 mg/L | MIC [4, 11]: >50 mg/L | MIC [5, 6]: 25 mg/L | MIC ([5]; LYM broth, 0.5 mM MgCl2): 25 mg/L | MIC ([5]; LYM broth, 1.5 mM MgCl2): 25 mg/L | MIC ([5]; LYM broth, 2.5 mM MgCl2): 25 mg/L | MIC [5, 7]: 25 mg/L | MIC [5, 8]: 50 mg/L | MIC [5, 9]: >50 mg/L | MIC [5, 10]: >50 mg/L | MIC ([5]; LYM broth, pH 4.5): 25 mg/L | MIC ([5]; LYM broth, pH 5.5): 25 mg/L | MIC ([5]; LYM broth, pH 6.5): 25 mg/L | MIC [5, 11]: >50 mg/L
